# Experimental data published in patent publication US20210371413A1, “POLYCYCLIC AMIDES AS CYTOTOXIC AGENTS” (FEMTOGENIX LIMITED, priority 2018, published 2021).
# Legend:
# [1] = system: Klebsiella pneumoniae KP4631; assay: MIC assay, Klebsiella pneumoniae KP4631; format: cell-based; settings: Klebsiella pneumoniae, KP4631
# Experimental: The antimicrobial activity of a selection of compounds were evaluated in a Gram-negative, Gram-positive and multi-resistant bacteria using the standard minimum inhibitory concentration (MIC) assay for an overnight (16-20 hour) incubation period. Commercially marketed antibiotics (Table 3) were used as positive controls during the study.
# Mueller-Hinton broth (MH Broth) (Sigma-Aldrich; Millipore, cat. no. 70192) and Mueller-Hinton agar (MHA) (Sigma-Aldrich; Millipore, cat. no. 70191) were prepared as per manufacturer's instructions and sterilized by autoclaving. Approximately 20 mL of MHA was poured onto 15×100 mm petri dishes and allowed to set. Agar plates were then stored in plastic bags in an inverted position at 4° C.
# Bacterial strains were provided in the form of a glycerol stock, stored at −80° C. For the purpose of preparation of bacterial suspension, appropriate strains were removed from −80° C. storage onto dry ice and not allowed to freeze-thaw.
# Stock solutions of 16, 45 and 73 were provided in DMSO at 1.28 mg/mL concentration. From this stock solution, working solutions of the desired concentration were prepared by diluting with MHB.
# MIC assay methodology was adapted from previously published work.
# Bacterial isolate to be tested was streaked onto a nutrient-rich MH agar plate and incubated overnight at 37° C. in order to obtain single colonies.
# After overnight incubation, single colonies with the same morphological appearance were chosen from the agar plate. These were touched using a sterile loop and transferred into a tube containing 10 mL of a MH broth. They were then mixed using vortex mixer and incubated at 35-37° C. in a shaker at 200 r.p.m. overnight.
# Determination of OD600 and cfu/mL count OD600 (the optical density of a sample measured at a wavelength of 600 nm) of the overnight culture was measured. Because of the loss of linearity at OD600 values […], it was necessary to dilute the sample until the OD600 value was below 1.0. For all tested bacteria, a dilution of 1:10 was appropriate (100 μL in 900 μL broth).
# The overnight culture was then diluted 1:100 using sterile tubes and MH broth (dilution: 10^−2). Serial dilution was then performed six times until dilution of 10^−8 was reached. 100 μL of dilutions 10^−7 and 10^−8 were plated onto MH agar plates in triplicate using a sterile cell spreader and incubated overnight at 37° C.
# After overnight incubation, colonies on plates were counted and cfu per mL calculated. The following formula was applied: […]
# After overnight incubation, the OD600 was measured and the overnight culture was diluted accordingly to obtain 1×10^8 cfu/mL. […]
# The 96-well plates were read using a SpectraMax plate reader at an absorbance of 600 nm. […]
# [2] = system: 5′-[…]-3′ (poly GC) DNA duplex; assay: FRET DNA melting, poly GC duplex; format: binding; settings: 5′-AATAGGGGGTCGCCTATT-3′
# Experimental: FRET DNA melting studies were undertaken on 15 and 16 using two fluorescently labelled sequences. The sequences (FIG. 1) were designed to represent poly AT and poly GC sequences.
# The short duplexes used in this FRET study are relatively unstable in the duplex form with a melting temperature below 30° C. so that, in the absence of ligand, a large part of the melting occurs below the starting temperature of the experiment. However, it can be observed that 15 stabilizes the duplex form, producing increases in melting temperature with ΔTm values of […] for 5′-AAAAAAAGAAAAAATIT-3′ (FIG. 2, top panel), and ˜25° C. (FIG. 2, bottom panel).
# Oligonucleotides were obtained from ATDbio (Southampton, UK) in lyophilised form. […]
# The reaction mixture was comprised of 4 μL of 250 mM phosphate buffer (final concentration of 50 mM), 4 μL flourophor and 4 μL quencher molecule of the appropriate oligonucleotide for a final concentration of 0.2 μM, 4 μL 5 M sodium chloride (final concentration of 1 M NaCl), and 4 μL of distilled H2O. […] This mixture was analysed without prior annealing.
# Fluorescence melting profiles were measured using a Roche LightCycler using a total reaction volume of 20 μL. […] Annealing steps and melting steps were all recorded and changes in fluorescence were measured at 520 nm. […]
smiles,measurement,setting,value
"COc1cc2c(cc1OCCCC(=O)Nc1cc(C(=O)Nc3ccc(-c4cc(C(=O)Nc5ccc(N)cc5)n(C)c4)cc3)n(C)c1)NC[C@@H]1CCCCN1C2=O [Compound 16, (S)—N-(4-Aminophenyl)-4-(4-(4-(4-((2-methoxy-12-oxo-5,6,6a,7,8,9,10,12-octahydrobenzo[e]pyrido[1,2-a][1,4]diazepin-3-yl)oxy)butanamido)-1-methyl-1H-pyrrole-2-carboxamido)phenyl)-1-methyl-1H-pyrrole-2-carboxamide]",MIC,[1],> 8 mg/L
same,interactivity with the poly-GC sequence (FRET),[2],little interactivity
